Assay results published in US20230157283A1, “COMPOSITIONS AND METHODS FOR INHIBITING A FUNGAL PATHOGEN” (Tu Biomics, Inc., priority 2020, published 2023).

Tests used:
Botrytis cinerea = assay: Example 1: in vitro growth on agar plates containing organic acids; type: cell-based; design: Botrytis Treated (in vitro growth, mean±SE): unit not given here; details: for Botrytis Treated (in vitro growth, mean±SE): n=4 plates
Procedure: (§1) In FIG. 1, n.s. indicates “not significant”, ppm indicates “parts per million”; L and (S) indicate levorotatory and sinister rotatory, respectively, and asterisks are used to indicate degrees of statistical significance according to standard conventions. 2-fold concentrated compositions of lactate and acetate were diluted 1:1 with a deionized water + agar solution to prepare agar plates
(§2) In a first round of experiments, the effect of acetate, and dextrorotary (d), levorotary (1), and racemic mixtures of enantiomers of lactate alone, or in combination with acetate was evaluated on the growth of Sclerotium cepivorum and Botrytis cinera (Tables 1A and 1B).
(§3) The effects of higher concentrations of acetate and lactate L (S) on growth was evaluated (Tables 2A and 2B).

Sclerotium cepivorum = assay: as above; type: cell-based; design: Sclerotium Treated (in vitro growth, mean±SE): unit not given here; details: for Sclerotium Treated (in vitro growth, mean±SE): n=4 plates
Procedure: as §1, §2, §3

[1] = 200 ppm, 7 days after inoculation
[2] = 400 ppm, 7 days after inoculation
[3] = 600 ppm, 7 days, second round, n.s./bracketed = not significant
[4] = first round, concentrations of Tables 1A and 1B
[5] = 600 ppm, 7 days, second round (higher concentrations)
[6] = higher concentrations, Tables 2A and 2B
[7] = 175 ppm, 7 days after inoculation
[8] = 175 ppm, 7 days, n.s./bracketed = not significant
[9] = 350 ppm, 7 days after inoculation
[10] = 350 ppm, 7 days, n.s./bracketed = not significant
[11] = 175 ppm, 7 days, negative = inhibition, n.s./bracketed = not significant
[12] = 350 ppm, 7 days, negative = inhibition, n.s./bracketed = not significant

Compound	Sclerotium Treated (in vitro growth, mean±SE) (Sclerotium cepivorum; [5])	% Efficacy (percentage of mean growth in control plates) (Sclerotium cepivorum; [3])	effect on growth of S. cepivorum (in words) (Sclerotium cepivorum; [4])	effect on growth of S. cepivorum (in words) (Sclerotium cepivorum; [6])	Botrytis Treated (in vitro growth, mean±SE) (Botrytis cinerea; [7])	% Efficacy (percentage of mean growth in control plates) (Botrytis cinerea; [8])	Botrytis Treated (in vitro growth, mean±SE) (Botrytis cinerea; [9])	% Efficacy (percentage of mean growth in control plates) (Botrytis cinerea; [10])	Sclerotium Treated (in vitro growth, mean±SE) (Sclerotium cepivorum; [7])	% Efficacy (percentage of mean growth in control plates) (Sclerotium cepivorum; [11])	Sclerotium Treated (in vitro growth, mean±SE) (Sclerotium cepivorum; [9])	% Efficacy (percentage of mean growth in control plates) (Sclerotium cepivorum; [12])	further results
CC(=O)O [Acetate, acetic acid]	2.41 ± 0.57	-86%	significantly inhibited growth	increased with acetate concentration at all concentrations evaluated									Botrytis Treated (in vitro growth, mean±SE) (Botrytis cinerea; [1]): 16.19 ± 1.09; % Efficacy (percentage of mean growth in control plates) (Botrytis cinerea; 200 ppm, 7 days, negative = inhibition): -33%; Botrytis Treated (in vitro growth, mean±SE) (Botrytis cinerea; [2]): 12.37 ± 0.79; % Efficacy (percentage of mean growth in control plates) (Botrytis cinerea; 400 ppm, 7 days, negative = inhibition): -49%; % Efficacy (percentage of mean growth in control plates) (Botrytis cinerea; [3]): n.s.[11] %; Botrytis Treated (in vitro growth, mean±SE) (Botrytis cinerea; 600 ppm, 7 days, second round): 22.25 ± 4.12; % Efficacy (percentage of mean growth in control plates) (Botrytis cinerea; 800 ppm, 7 days, second round, n.s./bracketed = not significant): n.s.[13] %; Botrytis Treated (in vitro growth, mean±SE) (Botrytis cinerea; 800 ppm, 7 days, second round): 22.73 ± 4.69; Botrytis Treated (in vitro growth, mean±SE) (Botrytis cinerea; 1000 ppm, 7 days, second round): 29.75 ± 3.76; % Efficacy (percentage of mean growth in control plates) (Botrytis cinerea; 1000 ppm, 7 days, second round, positive = more growth): 48%; effect on growth of B. cinerea (in words) (Botrytis cinerea; [4]): significantly inhibited growth; effect on growth of B. cinerea (in words) (Botrytis cinerea; summary of FIG. 1): inhibited growth of B. cinera at lower concentrations, but served as a carbon source at higher concentrations; Sclerotium Treated (in vitro growth, mean±SE) (Sclerotium cepivorum; [1]): 3.63 ± 2.30; % Efficacy (percentage of mean growth in control plates) (Sclerotium cepivorum; 200 ppm, 7 days, negative = inhibition, n.s./bracketed = not significant): n.s. [23] %; Sclerotium Treated (in vitro growth, mean±SE) (Sclerotium cepivorum; [2]): 2.62 ± 1.85; % Efficacy (percentage of mean growth in control plates) (Sclerotium cepivorum; 400 ppm, 7 days, negative = inhibition, n.s./bracketed = not significant): n.s. [-39] %; % Efficacy (percentage of mean growth in control plates) (Sclerotium cepivorum; 800 ppm, 7 days, second round): -97%; Sclerotium Treated (in vitro growth, mean±SE) (Sclerotium cepivorum; 800 ppm, 7 days, second round): 0.51 ± 0.20
CC(O)C(=O)O (racemic) [Lactate DL (RS racemic mix), reference compound]			inhibited growth		16.81 ± 1.23	n.s.	26.15 ± 3.37	n.s.	2.06 ± 1.18	-72%	6.71 ± 2.90	n.s.	
C[C@@H](O)C(=O)O [Lactate D (R), D-lactic acid, reference compound]			appeared to act as a carbon source		23.42 ± 1.23	49%	23.82 ± 2.65	[35] %	14.09 ± 5.75	n.s.	10.68 ± 3.19	n.s.	
C[C@H](O)C(=O)O [Lactate L (S), L-lactic acid]	20.50 ± 4.10	n.s.[18] %	inhibited growth	not effective	23.59 ± 2.66	[38] %	27.71 ± 4.97	[71] %	5.73 ± 1.72	[-43] %	5.17 ± 1.85	[-46] %	% Efficacy (percentage of mean growth in control plates) (Sclerotium cepivorum; 450 ppm, 7 days, second round, n.s./bracketed = not significant): n.s.[-7] %; Sclerotium Treated (in vitro growth, mean±SE) (Sclerotium cepivorum; 450 ppm, 7 days, second round): 16.08 ± 3.55; effect on growth of S. cepivorum (in words) (Sclerotium cepivorum; summary of FIG. 1): inhibited growth of S. cepivorum at lower concentrations, but served as a carbon source at higher concentrations
